The record followed here is patent US12427200B2 (priority 2019, dated 2025).

For test [1], the system named is A/Perth/261/2009 (H1N1), H275Y mutation. To be noted: mouse, in vivo.
Test [2] relates to A/Texas/23/2012 (H1N1) H275Y. The arrangement: species or system BALB/c mice. The note with it: mouse, in vivo.
The test system of test [3] is H1N1 H275Y (A/Texas/23/2012). The class given is cell-based, Influenza A virus.
Test [4] relates to NA variants H275Y (H1N1), E119V and R292K (H3N2), R152K (B). Kind of test: biochemical. The test is classed as biochemical, Influenza virus.
For test [5], the system named is H3N2 E119V (A/Texas/12/2007). The test is classed as cell-based, Influenza A virus.
For test [6], the system named is A/Perth/261/2009 (H1N1) H275Y. Also noted: species or system BALB/c mice. To be noted: mouse, in vivo.
The target in test [7] is neuraminidase of live influenza A (H3N2) viruses (Influenza A virus, UniProt D1FVK3, I119V). Kind of test: biochemical.
Test [8] has as its target NA variants H275Y (H1N1), E119V and R292K (H3N2), R152K (B) (Influenza A virus (H3N2), UniProt D1FVK3, I119V). Briefly: biochemical. The test is classed as biochemical.

The structures appear in SMILES notation. Where “and” joins values, the source holds several entries; their conditions need not be identical. Identical values can stand only once. A value given as a limit tells only on which side of the number the result lay.

Turning to `CCOC(=O)C1=C[C@@H](OC(CC)CC)[C@H](NC(C)=O)[C@@H](N)C1` [Oseltamivir phosphate], the “Median Survival” value in test [1] is recorded as 7.

For the compound `CCOC(=O)C1=C[C@@H](OC(CC)CC)[C@H](NC(C)=O)[C@@H](N)C1` [Oseltamivir, oseltamivir], the “Percent Body Weight (grams)” value was 84% and 78% and 100% and 97% and 92% in test [2]; 89% and 84% and 82% and 74% and 100% and 102% and 99% in test [6] (po). Besides, in test [2], the “Protection from lethal challenge” value is “failed to protect”. The EC50 in test [3] and in test [5] was > 100 nM throughout. Also, the “Loss in potency against variants (up to)” value in test [4] is > 100 fold. In addition, the Survival entry in test [6] was “no survivors”. In test [1], the “% Survival” value turned out to be 20%.

As for `CC(=O)N[C@H]1[C@H]([C@H](O)[C@H](O)CO)OC(C(=O)O)=C[C@@H]1N=C(N)N` [Zanamivir, zanamivir], the EC50 in test [3] is 93.8 nM; in test [5], 74 nM. The IC50 in test [7] stood at 3.08 nM; in test [8], 3.8 nM. For the same compound, the “Loss in potency against variants (up to)” value in test [4] is > 10 fold.
